Source: patent US7179831B2, “5-[3-(4-benzyloxyphenylthio)-fur-2-yl]-imidazolidin-2, 4-dione and analogues as inhibitors of macrophage elastase” (Quest Pharmaceutical Services, priority 2004, dated 2007)
pIC50: −log10 of the molar value.

Assays:
Format in all cases: biochemical
Conditions in all cases: recombinant human active domain, substrate 4 uM, room temperature
MMP-12 = target: T1, MMP-12 (Homo sapiens, UniProt P39900); experiment: MMP inhibitory assay, fluorescent substrate, MMP-12
T1 construct: All the enzymes are recombinant human active domains from E. coli (Biomol); purchased Biomol; host or cells: E. coli
Experimental: (§1) The enzymatic activities of MMPs were assayed according to manufacture protocols (Biomol Reseaerch Laboratory, Inc. E-mail: info@biomol.com). All the enzymes are recombinant human active domains from E. coli (Biomol). The fluorescent substrate has the sequence of (7-methoxycoumarin-4-yl) acetyl-Pro-Leu-Gly-Leu-N-3-(2,4-dinitrophenyl)-L-α,β-diaminopropionyl-Ala-Arg-NH2.AcOH. All the assays were conducted at room temperature with 96 well flat bottom black plate (Nalge Nunc International, Catalog number, 465200). Briefly, certain amount of enzyme in 89 ul of assay buffer (50 mM Hepes, 10 mM CaCl2, 0.05% Brij 35, pH 7.5) was incubated with (7 concentration per set) or without inhibitor (in 1 ul of DMSO, or 1 ul DMSO only) for 20 min. Then the enzymatic reaction was initiated by the addition of the substrate (40 uM in 10 ul of assay buffer and the final concentration of the substrate is 4 uM). The activity was determined by measuring the fluorescence at Ex/Em=328 nm/393 nm and it was linear within 2 hrs. The fluorescence was read at 0 and 20 or 40 min. The reading at 0 time would be considered as the background and subtracted from the final reading. The IC50 was obtained by plotting the fluorescences versus the concentrations of the inhibitors of each assay with Prism software. […] Mechanism studies reveal that the inhibitors are competitive. For competitive inhibitor: Ki=IC50/(1+[S]/Km)
In the assay conditions, [S](4 uM) is smaller than Km (20 uM for MMP-12). So Ki equal to IC50/1.2, which is little smaller than IC50, or roughly equal to IC50.

MMP-1 = target: T2, MMP-1 (Homo sapiens, UniProt P03956); experiment: MMP inhibitory assay, fluorescent substrate, MMP-1
T2 construct: All the enzymes are recombinant human active domains from E. coli (Biomol); purchased Biomol; host or cells: E. coli
T2 sequence (P03956 100-269 limits assumed): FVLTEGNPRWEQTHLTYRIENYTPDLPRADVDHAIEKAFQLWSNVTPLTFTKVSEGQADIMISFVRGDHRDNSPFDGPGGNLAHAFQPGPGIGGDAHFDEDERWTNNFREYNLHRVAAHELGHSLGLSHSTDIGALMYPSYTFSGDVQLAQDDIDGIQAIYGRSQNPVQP
Experimental: as §1

MMP-2 = target: T3, MMP-2 (Homo sapiens, UniProt P08253); experiment: MMP inhibitory assay, fluorescent substrate, MMP-2
T3 construct: All the enzymes are recombinant human active domains from E. coli (Biomol); purchased Biomol; host or cells: E. coli
Experimental: as §1

MMP-3 = target: T4, MMP-3 (Homo sapiens, UniProt P08254); experiment: MMP inhibitory assay, fluorescent substrate, MMP-3
T4 construct: All the enzymes are recombinant human active domains from E. coli (Biomol); purchased Biomol; host or cells: E. coli
Experimental: as §1

MMP-7 = target: T5, MMP-7 (Homo sapiens, UniProt P09237); experiment: MMP inhibitory assay, fluorescent substrate, MMP-7
T5 construct: All the enzymes are recombinant human active domains from E. coli (Biomol); purchased Biomol; host or cells: E. coli
T5 sequence (P09237 95-267): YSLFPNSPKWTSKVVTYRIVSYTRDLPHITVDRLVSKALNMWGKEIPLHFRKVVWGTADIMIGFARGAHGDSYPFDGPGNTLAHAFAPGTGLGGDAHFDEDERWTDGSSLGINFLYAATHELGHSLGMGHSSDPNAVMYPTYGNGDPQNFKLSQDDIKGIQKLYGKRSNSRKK
Experimental: as §1

MMP-9 = target: T6, MMP-9 (Homo sapiens, UniProt P14780); experiment: MMP inhibitory assay, fluorescent substrate, MMP-9
T6 construct: All the enzymes are recombinant human active domains from E. coli (Biomol); purchased Biomol; host or cells: E. coli
Experimental: as §1

MMP-13 = target: T7, MMP-13 (Homo sapiens, UniProt P45452); experiment: MMP inhibitory assay, fluorescent substrate, MMP-13
T7 construct: All the enzymes are recombinant human active domains from E. coli (Biomol); purchased Biomol; host or cells: E. coli
Experimental: as §1

T4 sequence (P08254 100-272 limits assumed): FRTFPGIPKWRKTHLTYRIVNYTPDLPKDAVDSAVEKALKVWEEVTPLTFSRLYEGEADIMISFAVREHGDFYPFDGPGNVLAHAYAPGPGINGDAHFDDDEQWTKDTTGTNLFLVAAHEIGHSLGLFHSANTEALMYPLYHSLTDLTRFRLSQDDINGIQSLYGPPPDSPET
T6 sequence (P14780 107-444 limits assumed): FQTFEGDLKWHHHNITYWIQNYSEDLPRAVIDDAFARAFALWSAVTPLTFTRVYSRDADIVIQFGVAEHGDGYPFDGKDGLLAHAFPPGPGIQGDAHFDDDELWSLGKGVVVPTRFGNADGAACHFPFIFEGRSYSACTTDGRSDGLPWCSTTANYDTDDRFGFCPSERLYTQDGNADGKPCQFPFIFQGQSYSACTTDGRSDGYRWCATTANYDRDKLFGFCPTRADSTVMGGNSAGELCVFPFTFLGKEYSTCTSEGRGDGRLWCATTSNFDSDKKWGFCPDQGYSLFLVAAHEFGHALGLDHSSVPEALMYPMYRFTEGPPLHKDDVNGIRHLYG
T1 sequence (P39900 106-263 limits assumed): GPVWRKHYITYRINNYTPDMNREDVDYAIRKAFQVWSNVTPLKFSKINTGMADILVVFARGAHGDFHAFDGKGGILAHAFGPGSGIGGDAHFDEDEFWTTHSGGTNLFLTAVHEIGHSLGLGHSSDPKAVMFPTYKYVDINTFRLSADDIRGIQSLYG
T3 sequence (P08253 110-446 limits assumed): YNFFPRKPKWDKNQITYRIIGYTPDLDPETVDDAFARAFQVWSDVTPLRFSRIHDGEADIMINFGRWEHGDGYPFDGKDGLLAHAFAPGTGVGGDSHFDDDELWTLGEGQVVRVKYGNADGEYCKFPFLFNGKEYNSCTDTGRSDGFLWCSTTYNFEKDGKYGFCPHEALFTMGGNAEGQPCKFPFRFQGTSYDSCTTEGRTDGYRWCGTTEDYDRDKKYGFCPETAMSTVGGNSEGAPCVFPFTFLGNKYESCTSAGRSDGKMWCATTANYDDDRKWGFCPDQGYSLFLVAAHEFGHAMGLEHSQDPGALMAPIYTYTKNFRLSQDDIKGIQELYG

O=C1NC(=O)C(c2occc2Sc2ccc(OCc3ccccc3)cc2)N1 (stereo not drawn) [IVa, 5-[3-(4-Benzoxyphenylthio)fur-2-yl]imidazoline-2,4-dione]
pIC50 (MMP-12): 7.89
pIC50 (MMP-1): < 4.40
pIC50 (MMP-2): 6.35
pIC50 (MMP-3): 5.68
pIC50 (MMP-7): 4.20
pIC50 (MMP-9): 6.14
pIC50 (MMP-13): 5.97

O=C1NC(=O)C(c2occc2Sc2ccc(OCc3ccc(OCc4ccccc4)cc3)cc2)N1 (stereo not drawn) [IVb, 5-{3-[4-(4-Benzyloxybenzyloxy)phenylthio]fur-2-yl}imidazolidine-2,4-dione]
pIC50 (MMP-12): 7.08
pIC50 (MMP-1): < 4.40
pIC50 (MMP-2): 5.93
pIC50 (MMP-3): 6.42
pIC50 (MMP-7): 5.73
pIC50 (MMP-9): 5.35
pIC50 (MMP-13): 6.47

O=C1NC(=O)C(c2occc2Sc2ccc(OCc3ccc(-c4ccccc4)cc3)cc2)N1 (stereo not drawn) [IVc, 5-{3-[4-(4-biphenylmethoxy)phenylthio]fur-2-yl}imidazoline-2,4-dione]
pIC50 (MMP-12): 6.88
pIC50 (MMP-1): < 4.40
pIC50 (MMP-2): 5.76
pIC50 (MMP-3): 4.44
pIC50 (MMP-7): 5.98
pIC50 (MMP-13): 6.15

COc1ccc(COc2ccc(Sc3ccoc3C3NC(=O)NC3=O)cc2)cc1 (stereo not drawn) [IVd, 5-{3-[4-(4-Methoxybenzyloxy)phenylthio]fur-2-yl}imidazolidine-2,4-dione]
pIC50 (MMP-12): 8.00
pIC50 (MMP-1): < 4.40
pIC50 (MMP-2): 6.37
pIC50 (MMP-3): 6.50
pIC50 (MMP-7): 5.12
pIC50 (MMP-9): 6.13
pIC50 (MMP-13): 6.59

COc1cccc(COc2ccc(Sc3ccoc3C3NC(=O)NC3=O)cc2)c1 (stereo not drawn) [IVe, 5-{3-[4-(3-Methoxybenzyloxy)phenylthio]fur-2-yl}imidazolidine-2,4-dione]
pIC50 (MMP-12): 7.72
pIC50 (MMP-1): < 4.40
pIC50 (MMP-2): 5.70
pIC50 (MMP-3): 5.44
pIC50 (MMP-7): 4.56
pIC50 (MMP-9): 5.43
pIC50 (MMP-13): 5.61

COc1ccccc1COc1ccc(Sc2ccoc2C2NC(=O)NC2=O)cc1 (stereo not drawn) [IVf, 5-{3-[4-(2-Methoxybenzyloxy)phenylthio]fur-2-yl}imidazolidine-2,4-dione]
pIC50 (MMP-12): 6.69
pIC50 (MMP-1): < 4.40
pIC50 (MMP-2): 3.63
pIC50 (MMP-9): 4.52
pIC50 (MMP-13): 4.93

COc1cc(COc2ccc(Sc3ccoc3C3NC(=O)NC3=O)cc2)cc(OC)c1 (stereo not drawn) [IVg, 5-{3-[4-(3,5-dimethoxybenzoxy)phenylthio]fur-2yl}imidazoline-2,4-dione]
pIC50 (MMP-12): 6.58
pIC50 (MMP-1): < 4.40
pIC50 (MMP-3): 5.10
pIC50 (MMP-9): 4.45
pIC50 (MMP-13): 4.77

O=C1NC(=O)C(c2occc2Sc2ccc(OCc3ccc(Cl)cc3)cc2)N1 (stereo not drawn) [IVh, 5-{3-[4-(4-Chlorobenzyloxy)phenylthio]fur-2-yl}imidazolidine-2,4-dione]
pIC50 (MMP-12): 8.15
pIC50 (MMP-1): < 4.40
pIC50 (MMP-2): 6.63
pIC50 (MMP-3): 6.80
pIC50 (MMP-7): 5.13
pIC50 (MMP-9): 6.59
pIC50 (MMP-13): 6.48

O=C1NC(=O)C(c2occc2Sc2ccc(OCc3cccc(Cl)c3)cc2)N1 (stereo not drawn) [IVi, 5-{3-[4-(3-Chlorobenzyloxy)phenylthio]fur-2-yl}imidazolidine-2,4-dione]
pIC50 (MMP-12): 7.66
pIC50 (MMP-1): < 4.40
pIC50 (MMP-2): 5.99
pIC50 (MMP-3): 6.53
pIC50 (MMP-7): 3.17
pIC50 (MMP-9): 5.84
pIC50 (MMP-13): 6.11

O=C1NC(=O)C(c2occc2Sc2ccc(OCc3ccccc3Cl)cc2)N1 (stereo not drawn) [IVj, 5-{3-[4-(2-Chlorobenzyloxy)phenylthio]fur-2-yl}imidazolidine-2,4-dione]
pIC50 (MMP-12): 7.24
pIC50 (MMP-1): < 4.40
pIC50 (MMP-2): 5.73
pIC50 (MMP-3): 5.96
pIC50 (MMP-9): 5.95
pIC50 (MMP-13): 5.62

Cc1ccc(COc2ccc(Sc3ccoc3C3NC(=O)NC3=O)cc2)cc1 (stereo not drawn) [IVk, 5-{3-[4-(4-Methylbenzyloxy)phenylthio]fur-2-yl}imidazolidine-2,4-dione]
pIC50 (MMP-12): 7.82
pIC50 (MMP-1): < 4.40
pIC50 (MMP-2): 6.21
pIC50 (MMP-3): 6.23
pIC50 (MMP-7): 4.51
pIC50 (MMP-9): 6.33
pIC50 (MMP-13): 6.19

Cc1cccc(COc2ccc(Sc3ccoc3C3NC(=O)NC3=O)cc2)c1 (stereo not drawn) [IVo, 5-{3-[4-(3-Methyl-benzyloxy)phenylthio]fur-2-yl}imidazolidine-2,4-dione]
pIC50 (MMP-12): 7.96
pIC50 (MMP-1): < 4.40
pIC50 (MMP-2): 5.95
pIC50 (MMP-3): 5.87
pIC50 (MMP-7): 4.33
pIC50 (MMP-9): 5.53
pIC50 (MMP-13): 5.71

Cc1ccccc1COc1ccc(Sc2ccoc2C2NC(=O)NC2=O)cc1 (stereo not drawn) [IVp, 5-{3-[4-(2-Methyl-benzyloxy)phenylthio]fur-2-yl}imidazolidine-2,4-dione]
pIC50 (MMP-12): 7.38
pIC50 (MMP-1): < 4.40
pIC50 (MMP-2): 5.15
pIC50 (MMP-3): 5.39
pIC50 (MMP-9): 5.68
pIC50 (MMP-13): 5.37

O=C1NC(=O)C(c2occc2Sc2ccc(OCc3cccc(C(F)(F)F)c3)cc2)N1 (stereo not drawn) [IVq, 5-{3-[4-(3-Trifluoromethyl-benzyloxy)phenylthio]fur-2yl}imidazolidine-2,4-dione]
pIC50 (MMP-12): 7.47
pIC50 (MMP-1): < 4.40
pIC50 (MMP-2): 5.67
pIC50 (MMP-3): 5.48
pIC50 (MMP-9): 5.54
pIC50 (MMP-13): 5.69
